# In patent US12234271B2 (Synthorx, Inc., priority 2019, dated 2025):
# Experiments:
# [1] = biological target: T1, IL-2 receptor beta gamma (Homo sapiens, UniProt P14784+P31785); assay: PathHunter IL-2 Cytokine Receptor agonist assay, beta gamma; format: cell-based; conditions: U2OS PathHunter cells IL-2Rbeta/gamma; mass of IL-2 polypeptide only, without mPEG or linker
# T1 construct: host or cells: U2OS (PathHunter)
# T1 sequence (P14784 27-551): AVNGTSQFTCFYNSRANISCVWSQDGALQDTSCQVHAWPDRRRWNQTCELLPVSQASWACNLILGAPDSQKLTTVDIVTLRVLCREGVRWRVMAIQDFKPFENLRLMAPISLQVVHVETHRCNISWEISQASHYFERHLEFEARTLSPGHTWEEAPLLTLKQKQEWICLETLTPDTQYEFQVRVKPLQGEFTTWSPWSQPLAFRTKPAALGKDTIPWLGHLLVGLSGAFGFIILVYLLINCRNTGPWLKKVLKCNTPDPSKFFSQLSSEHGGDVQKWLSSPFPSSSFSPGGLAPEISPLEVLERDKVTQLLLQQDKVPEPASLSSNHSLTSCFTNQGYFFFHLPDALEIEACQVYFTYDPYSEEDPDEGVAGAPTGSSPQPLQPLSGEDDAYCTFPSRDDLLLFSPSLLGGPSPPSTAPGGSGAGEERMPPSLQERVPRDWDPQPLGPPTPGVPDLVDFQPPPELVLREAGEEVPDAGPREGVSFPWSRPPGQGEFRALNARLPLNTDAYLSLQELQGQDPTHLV
# T1 sequence (P31785 23-369): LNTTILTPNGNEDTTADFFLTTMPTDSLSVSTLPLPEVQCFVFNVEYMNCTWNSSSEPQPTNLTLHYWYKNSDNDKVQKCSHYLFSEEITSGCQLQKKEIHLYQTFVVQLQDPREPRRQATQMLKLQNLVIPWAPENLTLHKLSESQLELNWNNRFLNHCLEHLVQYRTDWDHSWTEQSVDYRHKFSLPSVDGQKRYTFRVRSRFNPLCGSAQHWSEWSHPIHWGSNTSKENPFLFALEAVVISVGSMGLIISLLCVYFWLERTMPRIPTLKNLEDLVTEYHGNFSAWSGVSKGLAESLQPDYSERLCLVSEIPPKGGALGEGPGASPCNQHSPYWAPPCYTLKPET
# Protocol: (§1) For example, the compounds labelled “D20_30” in this example is the compound having SEQ ID NO: 4 in which the structure of Formula (II), Formula (III), or a mixture of Formula (II) and (III) was substituted at the D20 residue (SEQ ID NO: 67) with a PEG group having a molecular weight of 30 kDa. Similarly, the following compounds were tested in this Example:
# (§2) A second cell line was engineered to express the IL-2Ralpha subunit.
# (§3) PathHunter cell lines were expanded from freezer stocks according to standard procedures. Cells were seeded in a total volume of 20 μL into white walled, 384-well microplates and incubated for the appropriate time prior to testing. […] Intermediate dilution of sample stocks was performed to generate 5× sample in assay buffer. About 5 μL of 5× sample was added to cells and incubated at 37° C. for a period of from 6 hours to 16 hours depending on the assay. Vehicle concentration was 1%. […] For some assays, activity was detected using a high sensitivity detection reagent (PathHunter Flash Kit) to improve assay performance. […] Microplates were read following signal generation with a PerkinElmer Envision instrument for chemiluminescent signal detection.
# (§4) Compound activity was analyzed using CBIS data analysis suite software (ChemInnovation, CA).
# [2] = biological target: T2, IL-2 receptor alpha beta gamma (Homo sapiens, UniProt P01589+P14784+P31785); assay: PathHunter IL-2 Cytokine Receptor agonist assay, alpha beta gamma; format: cell-based; conditions: U2OS PathHunter cells with IL-2Ralpha; mass of IL-2 polypeptide only, without mPEG or linker
# T2 construct: host or cells: U2OS (PathHunter)
# T2 sequence (P01589 22-272): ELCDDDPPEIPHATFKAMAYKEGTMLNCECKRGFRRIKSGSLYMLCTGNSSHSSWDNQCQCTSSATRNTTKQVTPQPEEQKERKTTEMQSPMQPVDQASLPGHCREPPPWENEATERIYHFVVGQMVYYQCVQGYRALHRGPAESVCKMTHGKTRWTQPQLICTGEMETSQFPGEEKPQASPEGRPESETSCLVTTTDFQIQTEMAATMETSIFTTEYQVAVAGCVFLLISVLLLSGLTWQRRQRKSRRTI
# T2 sequence (P14784 27-551): T1 sequence (P14784 27-551)
# T2 sequence (P31785 23-369): T1 sequence (P31785 23-369)
# Protocol: as §1, §2, §3, §4
# [3] = test system: white blood cell count (WBC), lymphocyte count; assay: Hematology after single subcutaneous dose in Cynomolgus monkeys; format: in vivo, Cynomolgus monkey
# Excerpt: Each of the conjugates described below, except H16_30 kDa and H16_50 kDa, had SEQ ID NO: 4 in which the indicated amino acid position is substituted with the structure of Formula (II), Formula (III), or a mixture of Formula (II) and (III), and they contain a PEG chain of the indicated size. For example, the variant labeled “L19_30 kDa” has SEQ ID NO: 4 in which the amino acid at position L19 is replaced by the structure of Formula (II), Formula (III), or a mixture of Formula (II) and (III), and contains a 30 kDa, linear mPEG group. For the H16_30 kDa and H16_50 kDa variants, the compounds had SEQ ID NO: 4 in which the indicated amino acid position is substituted with the structure of Formula (IV), Formula (V), or a mixture of Formula (IV) and […] a linear, mPEG group having a molecular weight of 30 kDa or 50 kDa, respectively.
# Blood samples were taken from each animal at the following time points: Samples for hematology: Day −1, Day 1 (Predose), 3, 6, 10, 15 and 22. Samples for pharmacokinetics and pharmacodynamics: (Predose), 0.5, 1, 2, 4, 8, 24, 36, 48, 72, 96, 120, 144, 168, and 240, 360, 528 (Day 22) hours post-dose. Cytokine sample collection and analysis: Day −1, and Day 1 (Predose), 8, 24, 72, 120 and 168, 360, and 528 (Day 22) hours post-dose.
# [4] = test system: CD8+ Tcells; assay: pSTAT5 signaling in human LRS-derived PBMC samples, CD8+ T cells (flow cytometry); format: cell-based; conditions: from MFI plots
# Protocol: (§5) Conjugates of Table 3 were synthesized by modification of SEQ ID NO. 1.
# (§6) These studies were performed at PrimityBio LLC (Fremont, CA).
# [5] = test system: Treg cells; assay: pSTAT5 signaling in human LRS-derived PBMC samples, Treg cells (flow cytometry); format: cell-based; conditions: for Fold increase in Treg EC50 vs native IL-2: compared to native IL-2 run in each individual experiment; for Treg cells, dose response EC50 for pSTAT5 signaling: human LRS samples, from MFI plots; for CD8+/Treg ratio: ratio of pSTAT5 EC50, human LRS samples
# Protocol: as §5, §6
# [6] = test system: NK cells; assay: pSTAT5 signaling in human LRS-derived PBMC samples, NK cells (flow cytometry); format: cell-based; conditions: from MFI plots
# Protocol: as §5, §6
# [7] = test system: CTLL-2; assay: CTLL-2 proliferation; format: cell-based; conditions: mouse CTLL-2
# Excerpt: FIG. 4A-FIG. 4B show the dose response curves for pSTAT5 signaling in human LRS primary cell (FIG. 4A) and proliferation response in mouse CTLL-2 populations (FIG. 4B).
# [8] = cited from earlier work
"CD8+ Tcells, dose response EC50 for pSTAT5 signaling [4]",Fold increase in Treg EC50 vs native IL-2 [5],"Treg cells, dose response EC50 for pSTAT5 signaling [5]","NK cells, dose response EC50 for pSTAT5 signaling [6]",Substance,CD8+/Treg ratio [5],CTLL-2 proliferation EC50 [7],further results
–,–,–,–,"H16_30kDa: SEQ ID NO: 4 with Formula (II), (III) or mixture at H16 (SEQ ID NO: 65), linear mPEG 30 kDa",–,–,Beta gamma EC50 [1]: 5742 ng/mL; Alpha beta gamma EC50 [2]: 3.3 ng/mL
–,–,–,–,"L19_30kDa: SEQ ID NO: 4 with Formula (II), (III) or mixture at L19 (SEQ ID NO: 66), 30 kDa linear mPEG",–,–,Date at the peak of lymphocytes ([3]; 0.03 mg/kg single subcutaneous dose): 6 days post; Date at the peak of lymphocytes ([3]; 0.16 mg/kg single subcutaneous dose): 6 days post
15025734 pg/ml,148,11082 pg/ml,2312847 pg/ml,"N88R: IL-2 variant of Table 3 labelled N88R, no PEG size given [reference compound]",1356,0.363 ng/mL,–
–,–,–,–,"N88_30kDa: SEQ ID NO: 4 with Formula (II), (III) or mixture at N88 (SEQ ID NO: 70), linear mPEG 30 kDa",–,–,Date at the peak of lymphocytes ([3]; 0.37 mg/kg single subcutaneous dose): 6 days post
102255 pg/ml,3,142 pg/ml,20537 pg/ml,"V91K: IL-2 variant of Table 3 labelled V91K, no PEG size given [reference compound]",720,0.0995 ng/mL,–
–,–,–,–,human transferrin: 679 amino acid polypeptide that is about 80 kDa in size,–,–,half-life [8]: 170 to 288 h
